Test results taken from PubChem BioAssay AID2060894 (Molecular Pharmacology Branch, DTP, NCI, 2025).
pIC50: −log10 of the molar value.

Tested on: K12877-001-R-J1-PDC complex spheroid viability
Experiment: Anticancer human tumor K12877-001-R-J1-PDC patient-derived lung adenocarcinoma cell line growth inhibition [RAS]
Settings: for pIC50: curve of first compound; for viability, T/C: stronger effect = lower value
Summary of the method: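 Tumour cells grown as complex spheroids with HUVEC endothelial cells and mesenchymal stem cells, treated with RAS pathway inhibitor combinations. Each agent spans half-log steps from near clinical Cmax, or 10 microM where Cmax is unknown.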

[1] = second compound 0.00316 µM, first compound 0.0316 µM
[2] = second compound 0.00316 µM, first compound 0.1 µM
[3] = second compound 0.00316 µM, first compound 0.316 µM
[4] = second compound 0.00316 µM, first compound 1 µM
[5] = second compound 0.00316 µM, first compound 3.16 µM
[6] = second compound 0.00316 µM, first compound 10 µM
[7] = second compound 0.01 µM, first compound 0.0316 µM
[8] = second compound 0.01 µM, first compound 0.1 µM
[9] = second compound 0.01 µM, first compound 0.316 µM
[10] = second compound 0.01 µM, first compound 1 µM
[11] = second compound 0.01 µM, first compound 3.16 µM
[12] = second compound 0.01 µM, first compound 10 µM
[13] = second compound 0.0316 µM, first compound 0.0316 µM
[14] = second compound 0.0316 µM, first compound 0.1 µM
[15] = second compound 0.0316 µM, first compound 0.316 µM
[16] = second compound 0.0316 µM, first compound 1 µM
[17] = second compound 0.0316 µM, first compound 3.16 µM
[18] = second compound 0.0316 µM, first compound 10 µM
[19] = second compound 0.1 µM, first compound 0.0316 µM
[20] = second compound 0.1 µM, first compound 0.1 µM
[21] = second compound 0.1 µM, first compound 0.316 µM
[22] = second compound 0.1 µM, first compound 1 µM
[23] = second compound 0.1 µM, first compound 3.16 µM
[24] = second compound 0.1 µM, first compound 10 µM
[25] = second compound 0.316 µM, first compound 0.0316 µM
[26] = second compound 0.316 µM, first compound 0.1 µM
[27] = second compound 0.316 µM, first compound 0.316 µM
[28] = second compound 0.316 µM, first compound 1 µM
[29] = second compound 0.316 µM, first compound 3.16 µM
[30] = second compound 0.316 µM, first compound 10 µM
[31] = second compound 1 µM, first compound 0.0316 µM
[32] = second compound 1 µM, first compound 0.1 µM
[33] = second compound 1 µM, first compound 0.316 µM
[34] = second compound 1 µM, first compound 1 µM
[35] = second compound 1 µM, first compound 3.16 µM
[36] = second compound 1 µM, first compound 10 µM
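Also: spheroids exposed to agents for one week before readout.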
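For viability, T/C in this document: tumour cells co-cultured with HUVEC and mesenchymal stem cells in spheroids.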

CC(C)NCC(C(=O)N1CCN(c2ncnc3c2C(C)CC3O)CC1)c1ccc(Cl)cc1 (stereo unspecified) + C=CC(=O)N1CCN(c2nc(OCC3CCCN3C)nc3c(F)c(-c4nc(N)cc(C)c4C(F)(F)F)c(Cl)cc23)C(C)C1
pIC50 (second compound 0.00316 µM): 5.65 | pIC50 (second compound 0.01 µM): 5.81 | pIC50 (second compound 0.0316 µM): 5.85 | pIC50 (second compound 0.1 µM): 5.85 | pIC50 (second compound 0.316 µM): 6.03 | pIC50 (second compound 1 µM): 5.81 | viability, T/C [1]: 87.9% | viability, T/C [2]: 86.1% | viability, T/C [3]: 74.5% | viability, T/C [4]: 78.4% | viability, T/C [5]: 38% | viability, T/C [6]: 22% | viability, T/C [7]: 82.8% | viability, T/C [8]: 89.2% | viability, T/C [9]: 68.8% | viability, T/C [10]: 65.8% | viability, T/C [11]: 30.2% | viability, T/C [12]: 18% | viability, T/C [13]: 85.5% | viability, T/C [14]: 90.6% | viability, T/C [15]: 73.3% | viability, T/C [16]: 63.3% | viability, T/C [17]: 23.7% | viability, T/C [18]: 17.6% | viability, T/C [19]: 84% | viability, T/C [20]: 71.5% | viability, T/C [21]: 82.4% | viability, T/C [22]: 63.2% | viability, T/C [23]: 20.2% | viability, T/C [24]: 16.7% | viability, T/C [25]: 79.9% | viability, T/C [26]: 79.9% | viability, T/C [27]: 68.2% | viability, T/C [28]: 51% | viability, T/C [29]: 23.5% | viability, T/C [30]: 19.5% | viability, T/C [31]: 87.8% | viability, T/C [32]: 75.7% | viability, T/C [33]: 84.4% | viability, T/C [34]: 58.6% | viability, T/C [35]: 33.9% | viability, T/C [36]: 20.9%

CC(C)n1nc(-c2ccc3oc(N)nc3c2)c2c(N)ncnc21 + C=CC(=O)N1CCN(c2nc(OCC3CCCN3C)nc3c(F)c(-c4nc(N)cc(C)c4C(F)(F)F)c(Cl)cc23)C(C)C1
pIC50 (second compound 0.00316 µM): 7.70 | pIC50 (second compound 0.01 µM): 7.69 | pIC50 (second compound 0.0316 µM): 7.76 | pIC50 (second compound 0.1 µM): 7.81 | pIC50 (second compound 0.316 µM): 7.85 | pIC50 (second compound 1 µM): 7.79 | viability, T/C (second compound 0.00316 µM, first compound 0.000316 µM): 97.8% | viability, T/C (second compound 0.00316 µM, first compound 0.001 µM): 98.3% | viability, T/C (second compound 0.00316 µM, first compound 0.00316 µM): 90.6% | viability, T/C (second compound 0.00316 µM, first compound 0.01 µM): 73.3% | viability, T/C [1]: 34.9% | viability, T/C [2]: 17.7% | viability, T/C (second compound 0.01 µM, first compound 0.000316 µM): 88.9% | viability, T/C (second compound 0.01 µM, first compound 0.001 µM): 89.2% | viability, T/C (second compound 0.01 µM, first compound 0.00316 µM): 81.8% | viability, T/C (second compound 0.01 µM, first compound 0.01 µM): 79.3% | viability, T/C [7]: 32.1% | viability, T/C [8]: 15.2% | viability, T/C (second compound 0.0316 µM, first compound 0.000316 µM): 83.8% | viability, T/C (second compound 0.0316 µM, first compound 0.001 µM): 74.4% | viability, T/C (second compound 0.0316 µM, first compound 0.00316 µM): 78.4% | viability, T/C (second compound 0.0316 µM, first compound 0.01 µM): 71.4% | viability, T/C [13]: 27.1% | viability, T/C [14]: 14.4% | viability, T/C (second compound 0.1 µM, first compound 0.000316 µM): 75.6% | viability, T/C (second compound 0.1 µM, first compound 0.001 µM): 78.5% | viability, T/C (second compound 0.1 µM, first compound 0.00316 µM): 73.9% | viability, T/C (second compound 0.1 µM, first compound 0.01 µM): 65.5% | viability, T/C [19]: 24.7% | viability, T/C [20]: 14.5% | viability, T/C (second compound 0.316 µM, first compound 0.000316 µM): 82.9% | viability, T/C (second compound 0.316 µM, first compound 0.001 µM): 70% | viability, T/C (second compound 0.316 µM, first compound 0.00316 µM): 70.9% | viability, T/C (second compound 0.316 µM, first compound 0.01 µM): 61.6% | viability, T/C [25]: 25.5% | viability, T/C [26]: 14.6% | viability, T/C (second compound 1 µM, first compound 0.000316 µM): 72.6% | viability, T/C (second compound 1 µM, first compound 0.001 µM): 77.8% | viability, T/C (second compound 1 µM, first compound 0.00316 µM): 84.1% | viability, T/C (second compound 1 µM, first compound 0.01 µM): 68.3% | viability, T/C [31]: 25.2% | viability, T/C [32]: 14.4%

C[C@@H](NC(=O)c1ncnc(N)c1Cl)c1ncc(C(=O)Nc2cc(C(F)(F)F)c(Cl)cn2)s1 + C=CC(=O)N1CCN(c2nc(OCC3CCCN3C)nc3c(F)c(-c4nc(N)cc(C)c4C(F)(F)F)c(Cl)cc23)C(C)C1
pIC50 (second compound 0.00316 µM): < 5.00 | pIC50 (second compound 0.01 µM): < 5.00 | pIC50 (second compound 0.0316 µM): < 5.00 | pIC50 (second compound 0.1 µM): < 5.00 | pIC50 (second compound 0.316 µM): < 5.00 | pIC50 (second compound 1 µM): < 5.00 | viability, T/C [1]: 94.8% | viability, T/C [2]: 89.7% | viability, T/C [3]: 95.6% | viability, T/C [4]: 99.1% | viability, T/C [5]: 101% | viability, T/C [6]: 99.8% | viability, T/C [7]: 96.8% | viability, T/C [8]: 82.5% | viability, T/C [9]: 92.6% | viability, T/C [10]: 92.9% | viability, T/C [11]: 97.1% | viability, T/C [12]: 85.4% | viability, T/C [13]: 91% | viability, T/C [14]: 86.9% | viability, T/C [15]: 74.3% | viability, T/C [16]: 90.1% | viability, T/C [17]: 86.8% | viability, T/C [18]: 96.5% | viability, T/C [19]: 89.6% | viability, T/C [20]: 83.5% | viability, T/C [21]: 84.7% | viability, T/C [22]: 90.4% | viability, T/C [23]: 83.7% | viability, T/C [24]: 85.2% | viability, T/C [25]: 81.4% | viability, T/C [26]: 81.8% | viability, T/C [27]: 77.1% | viability, T/C [28]: 83.6% | viability, T/C [29]: 83.1% | viability, T/C [30]: 116% | viability, T/C [31]: 75% | viability, T/C [32]: 75.8% | viability, T/C [33]: 89.5% | viability, T/C [34]: 92.5% | viability, T/C [35]: 91.1% | viability, T/C [36]: 113%
